Patent publication US20020076412A1, “METHODS FOR MODULATING THE IMMUNE SYSTEM” (priority 1987, published 2002)
Where “and” joins values, the source holds several entries; their conditions need not be identical. Equal entries are not always repeated.

Experiments:
[1] = tested on: EAE (RAT); assay: Ability of peptide mixed in CFA to cause EAE; type: in vivo; details: rats with EAE / rats immunized with the peptide alone in CFA
Experimental: (§1) The peptides were tested for their ability to cause EAE when mixed in CFA. […] It was seen that Ala4, Ala6, Ala7, and Ala8 are poor binders to I-E, implying that these residues 4F,6N,7I, and 8V are critical in MHC binding. […] Despite their inability to bind well to I-E, peptides ala6 and ala8 block the development of EAE when mixed with native peptide in a 5:1 molar ratio with CFA (0/6 sick with native plus ala6, 2/6 with native plus ala8, compared to 11/12 with native peptide alone). These competitor peptides Ala6 and Ala8, though poor I-E binders can apparently compete with native peptide and antagonize the T-cell receptor.

[2] = tested on: CTL; assay: CTL assay with substituted peptides; type: cell-based
[3] = tested on: I-E; assay: MHC I-E binding of substituted MBP 87-99 peptides; design: species or system rat; details: for IC50: read-out: (M*C) IC50 I-E Binding
Description: A set of substituted peptides based on the sequence VHFFKNIVTPRT (Seq. ID No. 39), which is identical in rats, mice and human myelin basic protein (MBP), and corresponds to the I-E restricted epitope MBP 87-99 in the rat was produced. The peptides are shown in Table 1 (Seq. ID Nos. 39 to 52 respectively) MHC binding was measure say described in Smilek et al, 1991, Gautam et al 1992a&b.

[4] = tested on: 87-99 T-cell line; assay: Competition assay for T-cell proliferation with native peptide; type: cell-based, Lewis rat; details: blocking of proliferation of 87-99 T-cell line when given with native peptide in vitro
Experimental: The second assay is a competition assay for T-cell proliferation. In this assay, antigen presenting spleen cells are first irradiated and then incubated with native MBP peptide for 2-4 hours. These cells are then washed and further cultured with T-cells reactive to MBP. Various concentrations of candidate peptide analogues are included in cultures for an additional 3 days. Following this incubation period, each culture is pulsed with 1 μCi of [^3H]-thymidine for an additional 12-18 hours. Cultures are then harvested on fiberglass filters and counted as above. Mean CPM and standard error of the mean are calculated from data determined in triplicate cultures. Peptide analogues which inhibit proliferation to approximately 25% at a concentration of 50 μM or greater are suitable for further screening.
(§2) Proliferation Assay: Proliferative responses were determined as described previously (Zamvil, et al., Nature 317:355, 1985). 1×10^4 T-cells were cultured with 5×10^5 X-irradiated (3,000 rad) PL/J splenic APC in 0.2 ml of culture media in 96 well flat-bottomed microtiter plates (Falcon, 3072). Peptides were added to culture giving the final concentrations indicated. At 48 hours incubation, each well was pulsed with 1 μCi ^3H-thymidine and harvested 16 hours later. The mean c.p.m. thymidine incorporation was calculated for triplicate cultures. Standard deviations from replicate cultures were within 10% mean value. Proliferation assays were performed in 96-well microtiter plates. Briefly, 2×10^4 T-cells and 10^6 irradiated thymocytes/well were incubated with stimulation medium only, Con A, or antigen. The cultures were harvested onto glass fiber filters and TdR uptake was assessed by liquid scintillation. Mean cpm were calculated from triplicate wells. In some experiments, competitor peptides, or anti I-A (OX-6) or anti-I-E antibodies (OX-17) were used to evaluate which MHC molecules were used to restrict the T-cell response, or to determine whether peptides could antagonize stimulation by the native peptide.
as §1

[5] = tested on: EAE (RAT); assay: Prevention of EAE, competitor mixed with native peptide 5:1 in CFA; type: in vivo; details: sick/total; competitor plus native peptide 5:1 molar ratio in CFA; native line = native peptide alone
Experimental: as §1

[6] = tested on: 87-99 T-cell line; assay: Proliferation of encephalitogenic T-cell line raised against native peptide (87-99); type: cell-based, rat; details: stimulation of T-cell line raised against native 87-99; grades negative to 4+, key not given
Experimental: As noted above, candidate peptide analogues are first tested for their property of causing or inhibiting proliferation of T-cell lines. In the proliferation assay, MBP reactive T-cell lines may be used as target cells. T-cell lines are established from lymph nodes taken from rats injected with MBP. Lymph node cells are isolated and cultured for 5 to 8 days with MBP and IL-2 as a source of T-cell growth factors. Viable cells are recovered and a second round of stimulation is performed with MBP and irradiated splenocytes as a source of growth factors. After 5 to 6 passages in this manner, the proliferative potential of the cell lines are determined. MBP-reactive lines are used in the proliferation assay. In this assay, T-cell lines are cultured for three days with various concentrations of peptide analogues and irradiated, autologous splenocytes. After three days, 0.5-1.0 μCi of [^3H]-thymidine is added for 12-16 hours. Cultures are harvested and incorporated counts determined. Mean CPM and standard error of the mean are calculated from triplicate cultures.
Development of MBP-specific T-cell lines in the rat: T-cell lines are selected from LN or SC (spinal cords) of rats immunized with guinea pig myelin basic protein or with MBP peptide (200 μg) in CFA. Supernatants from ConA-stimulated Lewis rat splenocytes are used as the source of IL-2 to expand Ag-stimulated T-cells.
as §2

[7] = tested on: EAE; assay: Competition with Ala6 and Ala5 for prevention of EAE with MBP (Table 3); type: in vivo, mice; details: peptide alone 0.2 mg in CFA; number with clinical EAE/number immunized; listed as Native MBP Peptide
Experimental: Incidence of EAE was expressed as number of mice with clinical EAE/number of mice immunized. For the induction of EAE, MBP peptide was dissolved in phosphate buffered saline (PBS) and emulsified with complete Freund's adjuvant (CFA) in a 1:1 mixture of PBS and CFA. Mice were injected with 0.2 ml emulsion at the base of the tail. On the same day and 48 h later, pertussis toxin (List Chemicals, Campbell, Calif.) was injected intravenously. Mice were examined daily for signs of EAE. For prevention of EAE, animals were immunized with MBP (0.2 mg), or in a mixture with the competitor peptide (1 mg).

[8] = tested on: MS patients; details: cited from earlier work

| Molecule | binding to I-E / MHC (in words) [3] | IC50 [3] [µM] | EAE (RAT) [1] | CTL [2] | Comp Assay Prolif (RAT) [4] | Comp Assay Prolif (RAT) ([4]; listed as Ala8) | EAE (RAT) [5] | EAE (RAT) ([1]; listed as Ala8) | Prolif. [6] | Incidence of EAE [7] | specific response to MBP ([8]; in vivo) | patients with clinical exacerbation ([8]; within one month after initiation of treatment) |
| --- | --- | --- | --- | --- | --- | --- | --- | --- | --- | --- | --- | --- |
| CC[C@H](C)[C@H](NC(=O)[C@H](CC(N)=O)NC(=O)[C@H](CCCCN)NC(=O)[C@H](Cc1ccccc1)NC(=O)[C@H](Cc1ccccc1)NC(=O)[C@H](Cc1c[nH]cn1)NC(=O)[C@@H](N)C(C)C)C(=O)N[C@H](C(=O)N[C@H](C(=O)N1CCC[C@H]1C(=O)N[C@@H](CCCNC(=N)N)C(=O)N[C@H](C(=O)N1CCC[C@H]1C(=O)O)[C@@H](C)O)[C@@H](C)O)C(C)C [native, reference compound] |  | 14 | 21/21 | nega- | MINUS |  | 11/12 |  |  | 11/12 and 6/6 |  |  |
| IFN-γ: cytokine administered in a pilot study to alleviate symptoms of MS |  |  |  |  |  |  |  |  |  |  | increase |  |
| IFN-γ: cytokine administered in a pilot study to alleviate symptoms of MS (protein, UniProt P01579 24-161, looked up) Interferon gamma: QDPYVKEAENLKKYFNAGHSDVADNGTLFLGILKNWKEESDRKIMQSQIVSFYFKLFKNFKDDQSIQKSVETIKEDMNVKFFNSNKKKRDDFEKLTNYSVTDLNVQRKAIHELIQVMAELSPAAKTGKRKRSQMLFRG |  |  |  |  |  |  |  |  |  |  |  | 7 of 18 |

Continued, in another order:

| binding to I-E / MHC (in words) [3] | IC50 [3] [µM] | Molecule | EAE (RAT) [1] | CTL [2] | Comp Assay Prolif (RAT) [4] | Comp Assay Prolif (RAT) ([4]; listed as Ala8) | EAE (RAT) [5] | EAE (RAT) ([1]; listed as Ala8) | Prolif. [6] | Incidence of EAE [7] | specific response to MBP ([8]; in vivo) | patients with clinical exacerbation ([8]; within one month after initiation of treatment) |
| --- | --- | --- | --- | --- | --- | --- | --- | --- | --- | --- | --- | --- |
| poor binders | > 200 | CC(C)[C@H](N)C(=O)N[C@@H](Cc1c[nH]cn1)C(=O)N[C@@H](Cc1ccccc1)C(=O)N[C@@H](Cc1ccccc1)C(=O)N[C@@H](CCCCN)C(=O)N[C@@H](CC(N)=O)C(=O)N[C@@H](C)C(=O)N[C@H](C(=O)N[C@H](C(=O)N1CCC[C@H]1C(=O)N[C@@H](CCCNC(=N)N)C(=O)N[C@H](C(=O)N1CCC[C@H]1C(=O)O)[C@@H](C)O)[C@@H](C)O)C(C)C [Ala 7] | 6/6 | plus |  |  |  |  |  |  |  |  |
| poor binders | > 200 | CC[C@H](C)[C@H](NC(=O)[C@H](CC(N)=O)NC(=O)[C@H](CCCCN)NC(=O)[C@H](Cc1ccccc1)NC(=O)[C@H](Cc1ccccc1)NC(=O)[C@H](Cc1c[nH]cn1)NC(=O)[C@@H](N)C(C)C)C(=O)N[C@@H](C)C(=O)N[C@H](C(=O)N1CCC[C@H]1C(=O)N[C@@H](CCCNC(=N)N)C(=O)N[C@H](C(=O)N1CCC[C@H]1C(=O)O)[C@@H](C)O)[C@@H](C)O [Ala 8] | 1/15 | plus | plus | can block proliferation | 2/6 | incapable of causing EAE | weakly stimulate |  |  |  |
